Data published in patent publication US10213438B2, “Alkaloid compounds for treating depression, substance addictions, and indications associated with chronic inflammation” (MyMD Pharmaceuticals, Inc., priority 2014, dated 2019).

Tests used:
MAO-B = molecular target: T1, MAO-B (Homo sapiens, UniProt P27338); details: cited from earlier work
T1 sequence (P27338 1-520): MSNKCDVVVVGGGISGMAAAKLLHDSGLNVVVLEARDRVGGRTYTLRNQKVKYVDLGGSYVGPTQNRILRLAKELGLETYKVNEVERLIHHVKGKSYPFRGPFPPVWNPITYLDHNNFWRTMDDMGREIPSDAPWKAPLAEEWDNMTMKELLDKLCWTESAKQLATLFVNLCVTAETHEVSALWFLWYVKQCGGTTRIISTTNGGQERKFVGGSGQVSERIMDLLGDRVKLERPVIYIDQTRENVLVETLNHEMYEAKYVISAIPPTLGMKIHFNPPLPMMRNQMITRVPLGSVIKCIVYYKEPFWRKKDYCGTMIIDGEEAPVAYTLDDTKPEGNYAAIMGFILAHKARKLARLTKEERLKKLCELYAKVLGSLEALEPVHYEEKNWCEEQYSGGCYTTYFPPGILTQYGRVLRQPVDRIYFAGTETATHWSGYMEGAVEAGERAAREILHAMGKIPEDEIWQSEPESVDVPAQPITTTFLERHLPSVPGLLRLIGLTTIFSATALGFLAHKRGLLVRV

MAO-A [1] = molecular target: T2, MAO-A (Homo sapiens, UniProt P21397); details: cited from earlier work
T2 sequence (P21397 1-527): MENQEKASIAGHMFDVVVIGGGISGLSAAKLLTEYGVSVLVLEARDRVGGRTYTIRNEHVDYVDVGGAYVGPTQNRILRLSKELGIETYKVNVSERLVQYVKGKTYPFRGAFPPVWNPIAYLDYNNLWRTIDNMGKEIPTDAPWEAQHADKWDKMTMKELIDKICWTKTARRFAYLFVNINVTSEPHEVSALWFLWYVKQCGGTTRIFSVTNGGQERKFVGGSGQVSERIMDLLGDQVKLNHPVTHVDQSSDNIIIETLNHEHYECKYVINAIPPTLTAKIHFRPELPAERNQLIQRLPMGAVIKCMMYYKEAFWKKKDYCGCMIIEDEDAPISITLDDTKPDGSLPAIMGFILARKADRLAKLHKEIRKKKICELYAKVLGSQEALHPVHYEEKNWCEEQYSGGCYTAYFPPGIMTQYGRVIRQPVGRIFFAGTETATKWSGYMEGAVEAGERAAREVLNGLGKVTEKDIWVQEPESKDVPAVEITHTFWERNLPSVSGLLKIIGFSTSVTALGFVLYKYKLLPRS

mice = details: cited from earlier work; for effect on dopamine levels: MPTP
COX-2 = test: LPS-stimulated RAW cells, protein blot for COX-2 expression; assay type: cell-based, mouse; details: LPS stimulation, compound added after 15 minutes, harvest 24 hours later, FIG. 2
Description: (§1) This example illustrates in vitro studies of 2-(pyridin-3-yl)-2,3,4,7-tetrahydro-1H-azepine. For these experiments, the mouse macrophage cell line RAW 264.7 was used (referred to herein as RAW). The design of the experiments is the following:
(§2) RAW cells were plated in complete medium overnight. The following day, a known inflammatory stimulus (bacterial LPS) was added to the culture wells. Following a 15 minute stimulation, 2-(pyridin-3-yl)-2,3,4,7-tetrahydro-1H-azepine (7-MR) was added to the culture at different concentrations. Twenty-four hours later, RAW cells were harvested and their proteins extracted. Proteins were then run on a polyacrylamide gels and transferred to a nitrocellulose membrane. The membrane was finally probed with commercial antibodies against some classic inflammatory markers.
(§3) The following three inflammatory markers were tested:
COX-2 (antibody made by Cayman Chemical, catalog number 160106)

RAW macrophage cells = test: assay of cell viability in RAW macrophage cells; assay type: cell-based, mouse; details: RAW 264.7 cells, FIG. 1
Description: as §1
Before testing the anti-inflammatory effect(s) of 2-(pyridin-3-yl)-2,3,4,7-tetrahydro-1H-azepine, an assay of cell viability was performed. […] Toxicity was only seen at higher doses (3 mM and above).

MAO-A [2] = molecular target: T2, MAO-A; test: MAO-Glo luminescent assay, MAO-A; assay type: biochemical; details: 1 hour at room temperature, FIG. 5
Source text: This example describes experiments for determining monoamine oxidase (MAO) inhibition for 2-(pyridin-3-yl)-2,3,4,7-tetrahydro-1H-azepine and other alkaloids. MAOs are enzymes located on the outer membrane of mitochondria and are involved in the catabolism of monoamine neurotransmitters. There are two well-characterized isoenzymes: MAO-A, which predominantly catabolizes serotonin and norepinephrine, and MAO-B, which preferentially catabolizes benzylamine and phenylethylamine. Dopamine and tyramine are metabolized by both isoforms.
To detect the activity of MAO, a luminescent method (MAO-Glo Assay kit, from Promega, Cat # V1401) was used. In this method, a MAO substrate (a derivative of beetle luciferin provided in the kit) is mixed with the compound to be tested (in this case, myosmine and control compounds). Then, the MAO enzymes (either A or B, purchased separately) are added to the mixture and incubated with the reaction for 1 hour at room temperature. The MAO enzymes, if not inhibited by the test compound, will convert the substrate into methyl ester luciferin. Finally, a luciferin detection reagent (provided by the kit) is added (20 minutes at room temperature) to stop the MAO reaction and convert methyl ester luciferin into D-luciferin. […] The luminescent signal is measured and recorded using a luminometer. […]

iNOS = test: LPS-stimulated RAW cells, protein blot for iNOS expression; assay type: cell-based, mouse
Description: as §1, §2, §3
iNOS (SantaCruz Biotechnology, sc-650)

Row | SMILES | MAO inhibitory effects against MAO-B (MAO-B) | MAO inhibitory effects against MAO-A (MAO-A [1]) | effect on dopamine levels (mice) | decrease in dopamine metabolite levels induced by MPTP (mice) | also measured
1 | c1cncc([C@@H]2CCCCN2)c1 [anabasine] | exhibited MAO inhibitory effects | exhibited MAO inhibitory effects |  |  | 
2 | C1=CCC(c2cccnc2)NC1 (stereo not shown) [anatabine] | exhibited MAO inhibitory effects | exhibited MAO inhibitory effects |  |  | 
3 | CN1CCCC1c1cccnc1 (stereo not shown) [nicotine] |  |  | no significant effect | prevented the decrease | 
4 | c1cncc([C@@H]2CCCN2)c1 [nornicotine] | exhibited MAO inhibitory effects | exhibited MAO inhibitory effects |  |  | 
5 | C1=CCNC(c2cccnc2)CC1 (stereo not shown) [2-(pyridin-3-yl)-2,3,4,7-tetrahydro-1H-azepine] |  |  |  |  | expression of COX2 (COX-2): slightly; concentration not toxic to RAW macrophage cells (cell viability) (RAW macrophage cells): up to 2 mM; concentration at which toxicity was seen (cell viability) (RAW macrophage cells; higher doses): ≥ 3000 µM; inhibition of MAO-A (activity curve) (MAO-A [2]): found to inhibit MAO-A; expression of iNOS (iNOS; LPS stimulation, compound added after 15 minutes, harvest 24 hours later, FIGS. 2 and 3): decreased significantly; suppression of iNOS expression, separate experiments (iNOS; confirmation in separate experiments, FIG. 4): specifically suppressed iNOS
6 | c1ccc(-c2ccncc2)cc1 [4-phenylpyridine] |  |  | no significant effect | prevented the decrease | 
